The values below come from US20190127805A1, “GENE SIGNATURES FOR CANCER DETECTION AND TREATMENT” (ALMAC DIAGNOSTICS LIMITED, priority 2016, published 2019).

Assay [1] deals with OVCAR3-WT cells. The assay can be described thus: 10-day colony formation assay, OVCAR3-WT (cisplatin sensitive/naive). Format: cell-based, human. The procedure: (§1) Cells were seeded at predetermined densities, 24 hours later treated with drug, which was replenished every 3-4 days. After 10 days, cells were washed with PBS, fixed in methanol, stained with crystal violet and colonies counted. The surviving fraction (SF) for a given dose was calculated and dose-response curves plotted and IC50 generated using Graph Pad Prism™ 5. Receiver operator curves (ROC) were plotted by dicotomising the IC50 values based on the median of the IC50 and defining the higher IC50 values as resistant and the lower IC50 values as sensitive. The gene signatures associated with the cell lines were plotted based on sensitive and resistant cells. Additionally ROCs were plotted by dicotomising the signature scores based on the median of the scores and defining the higher signature score as signature positive and the lower signature scores as signature negative. The IC50s associated with the cell lines were plotted based on signature positive and signature negative cells.

Assay [2] deals with OVCAR3-CP cells. Put plainly: 10-day colony formation assay, OVCAR3-CP (cisplatin resistant). The format is cell-based, human. Conditions: for fold change: cisplatin-resistant OVCAR3 relative to OVCAR3 cisplatin-naïve, colony formation. The procedure:
as §1, with “negative cells. OVCAR3 and OVCAR4 cells were trypsinised and relevant cell numbers were seeded into P90 plates. Cells were allowed to adhere overnight. The following day media was removed and replaced with media containing 25 nM cisplatin. The concentration of cisplatin was increased every 2 weeks, doubling the concentration at every increment. Batches of cells were frozen every two weeks upon increasing the concentration of cisplatin. Once cells were stably growing at 200 nM cisplatin, sensitivity to cisplatin was tested by clonogenic assay. Cells were continuously grown in 200 nM cisplatin.” for “negative cells.”

For assay [3], the system named is OVCAR3 and OVCAR4 cisplatin-resistant cells. The assay can be described thus: CellTiter Glo cell viability assay. The format is cell-based. The note with it: Homo sapiens; 48 hour time point; cell line not stated in legend (FIG. 43A). As for the experimental part:
Cells were trysanised and counted using the Countess™ Automated Cell Counter. 5,000 cells were seeded into each well of a 96 well plate. Cells were allowed to adhere overnight and were then treated with titrated concentrations of cisplatin, cedirianib and nintedanib (10 μM to 0.005 μM concentration). […] The 96 well plate was allowed to stand at room temperature for 20-30 mins. In the meantime the CellTiter-Glo Luminescent was allowed to thaw from the −20 freezer. Following the 20-30 minute incubation, 75 μl of the CellTiter-Glo Luminescent was added per well, this was then shaken for 2 minutes and then allowed to stand for 10 minutes. The analysis was performed using the Bioscience BioTek plate reader.
(ATP-based viability assays read luminescence as a measure of living cells.)

For assay [4] the test system is unchanged. Put plainly: Western blot of VEGFa protein expression. The format is cell-based, human. Conditions: IC50 concentration; western blot (FIG. 43B). (Immunoblotting shows a protein as a band on a membrane.)
Assay [5] deals with relapsed platinum sensitive epithelial ovarian cancer. Conditions: cited from earlier work.
Assay [6] relates to OVCAR3-WT, OVCAR3-CP, OVCAR4-WT and OVCAR4-CP cells. Put plainly: 10-day colony formation assay with ALM201 (FIG. 30c). Format: cell-based, human. Conditions: OVCAR3 and OVCAR4 cells (FIG. 30c). As for the experimental part: as §1
OVCAR3 and OVCAR4 cells were trypsinised and relevant cell numbers were seeded into P90 plates. Cells were allowed to adhere overnight. The following day media was removed and replaced with media containing 25 nM cisplatin. The concentration of cisplatin was increased every 2 weeks, doubling the concentration at every increment. […]

In assay [7] the test system is Kuramochi cells. The assay can be described thus: Western blot of EMT and MAPK pathway markers, Kuramochi cells. Conditions: western blot (FIG. 30a). Format: cell-based.
The test system of assay [8] is OVCAR3 cisplatin resistant cell line. Put plainly: Western blot of EMT and MAPK pathway markers, OVCAR3 cisplatin resistant cells. The format is cell-based, human. The note with it: 1 nM and 10 nM, 24 hour treatment; western blot (FIG. 30b).
Assay [9] deals with OVCAR3 platinum resistant cell line. Put plainly: xCELLigence migration assay. The note with it: 0.1 nM, 1 nM and 10 nM (p=0.08544, p=0.015522, p=0.036739) (FIG. 30d). Format: cell-based, human. As for the experimental part:
The migration assay was performed using the xCELLigence RTCA DP system and carried out with CIM-plate 16 (ACEA Bioscience). Endothelial progenitor cell conditioned media, fresh endothelial media with growth factors (VEGF, IGF-1, bFGF, EGF) with 10% foetal bovine serum (FBS) and endothelial media with 10% foetal bovine serum (FBS) only, were the three chemo-attractant conditions used in the bottom chamber. 160 μl of the chemo-attractant was added to each bottom chamber of a CIM-plate 16. The CIM-Plate 16 is assembled by placing the top chamber onto the bottom chamber and snapping the two together. 30 μl pf serum-free medium is placed in the top chamber to hydrate and pre-incubate the membrane for 2 hours in the CO2 incubator at 37° C. before obtaining a background measurement. The protocol is optimised for the two paired cancer cell lines: OVCAR3, OVCAR4 parental and OVCAR3, OVCAR4 platinum resistant cell lines. […] Once the CIM-Plate 16 has been equilibrated, it is placed in the RTCA DP station and the background cell-index values are measured. […] The CIM-Plate 16 is placed in the RTCA DP station and migration is monitored every 5 minutes for several hours. […] For quantification of the migration rate, the slope of the curve was used to determine the rate if change in cell index. The average and standard deviation slope values were then quantified relative to the controls.

Assay [10] has the same test system. Put plainly: xCELLigence invasion assay. Format: cell-based, human. Conditions: 0.1 nM, 1 nM and 10 nM (p=0.0211, p=0.0026, p=0.3373) (FIG. 30d). The procedure:
The invasion assay was performed using the xCELLigence RTCA DP system and carried out with CIM-plate 16 (ACEA bioscience).
Normal cell media growth conditions (RPMI 1640, 1% L-Glut and 20% FCS) was the chemoattractant condition used in the bottom chamber. 160 μl of the chemoattractant was added to each bottom chamber of a CIM-plate 16. The CIM-Plate 16 is assembled by placing the top chamber onto the bottom chamber and snapping the two together. 20 μl Matrigel growth factor reduced (GFR) (phenol-red free) basement membrane matrix (Cornig, ref: 356231) was diluted in 400 μl optimem (serum free) giving a final working concentration of GFR Matrigel of 5%. […]
The protocol is optimized for the two paired cancer cell lines: OVCAR3, OVCAR4 parental and OVCAR3, OVCAR4 platinum resistant cell lines. […] Once the CIM-Plate 16 has been equilibrated, it is placed in the RTCA DP station and the background cell-index values are measured. […] The CIM-Plate 16 is placed in the RTCA DP station and migration is monitored every 5 minutes for several hours.
Each experimental condition was performed in triplicate. For quantification of the migration rate, the slope of the curve was used to determine the rate if change in cell index. The average and standard deviation slope values were then quantified relative to that at the control condition.

[11] abbreviates: Homo sapiens, OVCAR-3, 240 h, OVCAR3 cisplatin-naïve, 10-day colony formation (FIG. 42).
The mark [12] stands for this setting: Homo sapiens, OVCAR-3, 240 h, OVCAR3 cisplatin-resistant, 10-day colony formation (FIG. 42).

As usually defined, the IC50 is the midpoint of a concentration-inhibition curve. A high value points to a need for much substance. In the case of `COc1cc2c(Oc3ccc4[nH]c(C)cc4c3F)ncnc2cc1OCCCN1CCCC1` [Cediranib], the IC50 in [1] (setting [11]) turned out to be 4990 nM; in [2] (setting [12]), 1190 nM; in assay [3], 5570 nM. Moreover, the fold change in assay [2] worked out at 0.2391. Moreover, in assay [4], the “expression of the VEGFR ligand, VEGFa” value is on record as “downregulated”. Moreover, the PFS in assay [5] (cediranib with platinum chemotherapy and maintenance (reference 9.4 months)) was 11.4 months. Moreover, the overall survival in assay [5] (cediranib with platinum chemotherapy and maintenance (reference 17.6 months)) is reported as 20.3 months. Moreover, the “HR for PFS” value in [5] (p-value=0.0022) is 0.68. Also, the “HR for overall survival” value in assay [5] (p-value=0.0419) is recorded as 0.70.

Consider `COC(=O)c1ccc2c(c1)NC(=O)/C2=C(\Nc1ccc(N(C)C(=O)CN2CCN(C)CC2)cc1)c1ccccc1` [Nintedanib], for which the IC50 in [1] (setting [11]) was above 10000 nM; in assay [2] (setting [12]), 3780 nM; in assay [3] it was 9100 nM. Also, the fold change in assay [2] was 0.377. The “expression of the VEGFR ligand, VEGFa” value in assay [4] is “downregulated”.

`N.N.[Cl][Pt][Cl]` [cisplatin]: the IC50 in assay [1] (OVCAR3-WT, cisplatin alone) was 66 nM; in [1] (OVCAR3-WT, cisplatin with addition of 0.5 uM Trametinib), 33 nM; in [1] (cisplatin sensitive OVCAR3 cells, colony formation (FIG. 2a)) it was 66 nM; in [2] (OVCAR3-CP, cisplatin with addition of Trametinib), 60 nM; in assay [2] (cisplatin resistant OVCAR3 cells, colony formation (FIG. 2a)) it was 290 nM. In addition, the “fold decrease in the IC50” value in [1] (OVCAR3-WT, following addition of Trametinib to cisplatin) was found to be 2 fold; in [2] (OVCAR3-CP, following addition of Trametinib to cisplatin), 4.8 fold. The “fold difference in IC50 doses” value in assay [2] (cisplatin resistant vs cisplatin sensitive OVCAR3 cells) was found to be 4.4 fold.

Regarding “IRQQPRDPPTETLELEVSPDPAS (listed as Homo sapiens) [ALM201]”, in assay [6], the proliferation capacity result is on record as “inhibited the proliferation capacity”. For the same compound, in assay [7], the EMT signalling result is listed as “reduced” and the MAPK signalling result is recorded as “reduced”. Further, in assay [8], the EMT markers result is “reversing EMT markers” and the MAPK pathway result is recorded as “downregulation of the MAPK pathway”. The migration potential entry in [9] is “inhibited”. Also, the invasion potential entry in assay [10] is on record as “inhibited”.
